{"source": "patent US11660280B2", "about": "“Treatment of drug resistant gliomas” (OKLAHOMA MEDICAL RESEARCH FOUNDATION, priority 2017, dated 2023)", "key": {"[1]": {"tested_on": "LBP (lipopolysaccharide binding protein)", "test": "LBP ELISA in tumor tissue and blood serum of G55 glioma-bearing mice", "type": "in vivo, mouse", "protocol": "Lipopolysaccharide binding protein (LBP) ELISA assay. The LBP ELISA kit (Antibodies-Online.com; ABIN370808) is specific for mouse LBP levels in serum, plasma and tissue samples. This is a colorimetric assay that was read on a micro plate reader for measurement of absorbance at 450/620 nm. LBP concentrations were calculated from a standard curve and multiplied by appropriate dilution factors."}, "[2]": {"conditions": "tested in vivo; cited from earlier work"}, "human G55 xenograft": {"tested_on": "human G55 xenograft", "test": "Orthotopic G55 human GBM xenograft in nude mice (survival, MRI tumor volume, perfusion rCBF)", "type": "in vivo, mouse", "experimental": "Mice and Treatments. Animal studies were conducted in accordance to the OMRF IACUC (Institutional Animal Care and Use Committee) policies, which follow NIH guidelines. Two-month-old male nude mice (Hsd:Athymic Nude-Foxnlnu mice; Harlan Inc., Indianapolis, Ind.) were implanted intra-cerebrally with human G55 xenograft cells (1×10^7) per mL suspended in 4 μL in cell culture media of 1% aragose solution. Once tumors reached 10-15 mm^3 (determined via MRI), mice were either treated every 3 days with OKN-007 (150 mg/kg; via drinking water continuously) or TMZ (30 mg/kg via gavage every 3 days). TMZ was dissolved in 5% DMSO and 5% solutol-15 in sterile saline. Mice were treated until the tumor reached 100-150 mm^3 or for a total of up to 60 days after tumors were detected by MRI (>5 mm^3).\nMRI. MRI experiments were performed on a Bruker Bio-spec 7.0 Tesla/30-cm horizontal-bore magnet imaging system. […] T2-weighted imaging was obtained, and tumor volumes were calculated from MRI datasets.\nPerfusion imaging. In order to assess microvascular alterations associated with tumor capillaries, the perfusion imaging method, arterial spin labeling (ASL), was used. Perfusion maps were obtained on a single axial slice of the brain located on the point of the rostro-caudal axis where the tumor has the largest cross-section. Five regions of interest (ROIs) were manually outlined around the tumor, and appropriate ROIs were also taken from the contralateral side of the brain for comparison purposes. To calculate the differences in rCBF values, tumor rCBF values were obtained at late (days 18-26 following intracerebral implantation of cells for untreated mice) and early (days 10-13 following cell implantation) tumor stages, and normalized to rCBF values in the contralateral brain region of corresponding animals.\nStatistical analyses. Survival curves were analyzed using Kaplan-Meier curves. Tumor volumes, changes in normalized rCBF, and LBP levels were compared by two-way ANOVA with multiple comparisons. Data were represented as mean±SD, and P-values of either *0.05, **0.01, ***0.001, and ****0.0001 were considered statistically significant.\nMice and Treatments. Animal studies were conducted in accordance to the OMRF IACUC (Institutional Animal Care and Use Committee) policies, which follow NIH guidelines. […] Once tumors reached 10-15 mm^3 (determined via MRI), mice were either treated daily with OKN-007 in the drinking water (150 mg/kg; 0.20% w/v for a 20 g mouse), or every 3 days with TMZ (30 mg/kg). […] Water bottles were weighed, and the amount of OKN-007 consumed per mouse was determined. […]"}, "MGMT": {"tested_on": "MGMT", "test": "RT-PCR gene-fold changes in human GBM cells", "type": "cell-based", "protocol": "(§1) Quantification of mRNA by real-time quantitative RT-PCR for HIF-1a, MPG and MGMT. Total RNA from all cell lines with all treatments was purified with an RNeasy Mini Kit (Qiagen), and quantified by spectrophotometry (Nanodrop). cDNA was synthesized using SuperScript IV Reverse Transcriptase Kit (Invitrogen).\n(§2) Target gene mRNA was amplified and measured by Bio-Rad CFX96™ Real Time System. Gene expression was determined using the SYBR Select Master Mix (Applied Biosystems). […] The reaction is characterized by the point during cycling when amplification of PCR products is first detected, rather than the amount of PCR product accumulated after a fixed number of cycles. The higher the starting quantity of the template, the earlier a significant increase in fluorescence is observed. The threshold cycle is defined as the fractional cycle number at which fluorescence passes a fixed threshold above the baseline. Fluorescence data were converted into cycle threshold measurements exported to Microsoft Excel. Glyceraldehyde-3-phosphatase dehydrogenase (GAPDH) mRNA expression levels were used as the quantitative internal control. For precise quantification, the mRNA expression level of each sample was normalized using the expression of the GAPDH gene.\n(§3) All primers were synthesized by Integrated DNA Technologies. The primers used were: […]\n(§4) were used to amplify 603-bp transcripts of MPG [9]."}, "MPG": {"tested_on": "MPG", "test": "RT-PCR gene-fold changes in human GBM cells", "type": "cell-based", "protocol": "as §1, §2, §3, §4"}, "[3]": {"tested_on": "LBP (lipopolysaccharide binding protein)", "test": "LBP ELISA in tumor tissue and serum of F98 glioma-bearing rats", "type": "in vivo, rat", "excerpt": "The inventor also discovered a potential biomarker, LBP (lipopolysaccharide binding protein), that is elevated in tumors of rat F98 glioma-bearing rats (assessed by ELISA), and in GBM human tissue samples (assessed by immunohistochemistry). […] The inventor used an ELISA kit for LBP to assess this biomarker as an efficacy marker in both G55-tumor-bearing mice in both tumor tissue and blood serum, either untreated or treated with TMZ, OKN-007 or TMZ +OKN-007.\nMice and Treatments. Animal studies were conducted in accordance to the OMRF IACUC (Institutional Animal Care and Use Committee) policies, which follow NIH guidelines. For the F98 rat glioma cell implantation model, F98 cells (10^5 in 10-μ1 volume) were intracerebrally implanted with a stereotaxic device (2 mm lateral and 2 mm anterior to the bregma, and at a 3 mm depth) in a total of 15 Fischer 344 rats (male 200-250 gm). The animals were divided into two groups once tumors reached 10-20 mm^3 in volume (as determined by MRI): OKN-007 treated (n=8) and untreated (UT) (n=7) groups. […] Once tumors reached 10-15 mm^3 (determined via MRI), mice were either treated daily with OKN-007 in the drinking water (150 mg/kg; 0.20% w/v for a 20 g mouse), or every 3 days with TMZ (30 mg/kg). […] Water bottles were weighed, and the amount of OKN-007 consumed per mouse was determined. […]"}}}
{"smiles": "CC(C)(C)[N+]([O-])=Cc1ccc(S(=O)(=O)O)cc1S(=O)(=O)O", "note": "[OKN-007, 2,4-disulfonyl phenyl tert-butyl nitrone]", "values": [{"measurement": "LBP levels in tumor tissues compared to UT mice", "setting": "[1]", "value": "significantly less"}, {"measurement": "efficacy as compared to PBN", "setting": "[2]", "value": "unexpected increase in efficacy"}, {"measurement": "potency as compared to PBN", "setting": "[2]", "value": "increase in potency"}, {"measurement": "toxicity as compared to PBN", "setting": "[2]", "value": "marked and highly significant decrease in toxicity"}, {"measurement": "percent of treated mice alive 60 days following tumor detection", "setting": "human G55 xenograft; G55 glioma-bearing nude mice, OKN-007 150 mg/kg in drinking water, TMZ 30 mg/kg gavage every 3 days, n=5", "value": 20, "unit": "%"}, {"measurement": "tumor volumes compared to UT mice", "setting": "human G55 xenograft; MRI at 19-22 days following tumor detection, G55 glioma-bearing mice", "value": "significantly decreased tumor volumes"}, {"measurement": "tumor volumes compared to UT mice", "setting": "human G55 xenograft; last MRI time-point for each treatment group", "value": "no significant difference in tumor volumes"}, {"measurement": "tumor perfusion rates compared to TMZ treatment", "setting": "human G55 xenograft; perfusion MRI, no significant differences between treated groups", "value": "more normalized perfusion rates"}, {"measurement": "RT-PCR gene-fold change MGMT", "setting": "MGMT; LN18 cells (TMZ-resistant), UT 1.06", "value": 0.42, "unit": "fold"}, {"measurement": "RT-PCR gene-fold change MGMT", "setting": "MGMT; T98 cells (TMZ-resistant), UT 1.00", "value": 0.54, "unit": "fold"}, {"measurement": "RT-PCR gene-fold change MGMT", "setting": "MGMT; U251 cells (TMZ-sensitive), UT 1.00", "value": 1.22, "unit": "fold"}, {"measurement": "RT-PCR gene-fold change MPG", "setting": "MPG; G55 cells (TMZ-resistant), UT 1.06", "value": 4.52, "unit": "fold"}, {"measurement": "RT-PCR gene-fold change MPG", "setting": "MPG; LN18 cells (TMZ-resistant), UT 1.00", "value": 0.60, "unit": "fold"}, {"measurement": "RT-PCR gene-fold change MPG", "setting": "MPG; LN229 cells (TMZ-sensitive), UT 1.10", "value": 0.62, "unit": "fold"}, {"measurement": "RT-PCR gene-fold change MPG", "setting": "MPG; T98 cells (TMZ-resistant), UT 1.10", "value": 0.62, "unit": "fold"}, {"measurement": "RT-PCR gene-fold change MPG", "setting": "MPG; U138 cells (TMZ-resistant), UT 1.13", "value": 11.10, "unit": "fold"}, {"measurement": "RT-PCR gene-fold change MPG", "setting": "MPG; U251 cells (TMZ-sensitive), UT 1.10", "value": 0.81, "unit": "fold"}, {"measurement": "LBP levels in tumor tissues compared to untreated gliomas", "setting": "[3]; F98 glioma bearing rats, p<0.0001", "value": "significant decrease in LBP levels"}, {"measurement": "serum levels of LBP compared to untreated tumor-bearing rats", "setting": "[3]; F98 glioma-bearing rats, p<0.001", "value": "significantly lower"}]}
